{"source": "patent US20250325645A1", "about": "“BOVINE VIRAL DIARRHEA VIRUS IMMUNOGENIC COMPOSITIONS AND METHODS OF USE THEREOF” (KANSAS STATE UNIVERSITY RESEARCH FOUNDATION, priority 2021, published 2025)"}
{"tested_on": "CD8+ T cells from BVDV-immunized steers", "experiment": "MHC I blocking ELISPOT assay", "details": "steers 2539 and 2593; 2.5 μg/ml peptide; mAbs H58A and PT85A at 1.0 μg/ml vs IgG2a isotype control; p<0.05", "experimental": "Co-cultures of CD8+ T cells and autologous CD14+ monocytes from one TGAC-immunized steer (2539) and one A125-immunized steer (2593), were incubated with 2.5 μg/ml of peptide in the presence of either the two anti-bovine MHC I mAbs or IgG2a isotype control. The IFN-γ+CD8+ T cell responses in the presence or absence of anti-bovine MHC I mAbs were reported as SFC per million CD8+ T cells described as above.\nThe results from MHC I blocking ELISPOT assay were analyzed by Wilcoxon test in GraphPad Prism 7 (Version 7.04, GraphPad Software, Inc. La Jolla, CA). The significance of the difference in peptide-specific IFN-γ+CD8+ T cell responses in the absence or presence of anti-bovine MHC I mAbs was determined by a non-parametric test and the level of significance was set at p<0.05."}
{"sequence": "YFEPRDNYF [Peptide 100]", "IFN-γ+CD8+ T cell recall responses in the presence of anti-bovine MHC I mAbs": "significantly reduced"}
{"sequence": "GPVYHRAPL [Peptide 61]", "IFN-γ+CD8+ T cell recall responses in the presence of anti-bovine MHC I mAbs": "significantly reduced"}
{"sequence": "FGAYAASPY [Peptide 86]", "IFN-γ+CD8+ T cell recall responses in the presence of anti-bovine MHC I mAbs": "significantly reduced"}
{"sequence": "SEQKRTLLM [Peptide 37]", "IFN-γ+CD8+ T cell recall responses in the presence of anti-bovine MHC I mAbs": "significantly reduced"}
{"sequence": "GSVWNLGKY [Peptide 56]", "IFN-γ+CD8+ T cell recall responses in the presence of anti-bovine MHC I mAbs": "significantly reduced"}
{"sequence": "YYDDNLNEI [Peptide 64]", "IFN-γ+CD8+ T cell recall responses in the presence of anti-bovine MHC I mAbs": "significantly reduced"}
